According to the supplement of paper PMC11061612:

Assays:
Test in all cases: combination Emax (second highest fraction inhibited in the dose matrix, 72 h); higher = more inhibition; extreme values may be limits of the assay
[1] = tested on: MDA-MB-361 (Breast Carcinoma)
Procedure, shortened: (§1)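 Cell lines in DMEM/F12 or RPMI with 10% FBS were plated in 1536-well plates, held 24 hours at 37°C, 5% CO2, then given two-drug dose matrices for 72 hours (DMSO typically 0.2%). Viability was read by CellTiter-Glo 2.0 luminescence and scaled as inhibition from 0 (vehicle wells) to 1 (blank wells). Combination Emax is the second-highest inhibition in the matrix; Bliss excess is observed combination effect minus expected EA + EB − EA·EB, EA and EB being single-agent effects.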

[2] = tested on: TCCSUP (Bladder Carcinoma)
Procedure, shortened: as §1

[3] = tested on: CCRF-CEM (T-Lymphoblastic Leukemia)
Procedure, shortened: as §1

[4] = tested on: HCC-78 (Lung Adenocarcinoma)
Procedure, shortened: as §1

[5] = tested on: ES4 (Ewing's Sarcoma)
Procedure, shortened: as §1

[6] = tested on: AGS (Gastric Carcinoma)
Procedure, shortened: as §1

[7] = tested on: Daoy (Other Solid Carcinomas)
Procedure, shortened: as §1

[8] = tested on: DEL (T-Cell Non-Hodgkin's Lymphoma)
Procedure, shortened: as §1

[9] = tested on: MFE-296 (Endometrial Carcinoma)
Procedure, shortened: as §1

[10] = tested on: NCI-H2085 (Non-Small Cell Lung Carcinoma)
Procedure, shortened: as §1

[11] = tested on: HO-1-N-1 (Oral Cavity Carcinoma)
Procedure, shortened: as §1

[12] = tested on: TE-9 (Esophageal Squamous Cell Carcinoma)
Procedure, shortened: as §1

[13] = tested on: CaR-1 (Colorectal Carcinoma)
Procedure, shortened: as §1

[14] = tested on: HuP-T4 (Pancreatic Carcinoma)
Procedure, shortened: as §1

[15] = tested on: NCI-H82 (Small Cell Lung Carcinoma)
Procedure, shortened: as §1

[16] = tested on: HT-1376 (Bladder Carcinoma)
Procedure, shortened: as §1

[17] = tested on: UM-UC-3 (Bladder Carcinoma)
Procedure, shortened: as §1

[18] = tested on: LB831-BLC (Bladder Carcinoma)
Procedure, shortened: as §1

[19] = tested on: SNU-5 (Gastric Carcinoma)
Procedure, shortened: as §1

Compound | combination Emax [1] | combination Emax [2] | combination Emax [3] | combination Emax [4] | combination Emax [5] | combination Emax [6] | combination Emax [7] | combination Emax [8] | combination Emax [9] | combination Emax [10] | combination Emax [11] | combination Emax [12] | combination Emax [13] | combination Emax [14] | combination Emax [15] | combination Emax [16] | combination Emax [17] | combination Emax [18] | combination Emax [19]
CCc1c2c(nc3ccc(O)cc13)-c1cc3c(c(=O)n1C2)COC(=O)[C@]3(O)CC [SN-38] + CN(C)CCCOc1ccc(-c2ccc3ncc4c(c3c2)n(C2CCOCC2)c(=O)n4C)cn1 [AZD0156] (first compound max 0.3 µM, 7x7, partner max 1 µM) | 0.397 | 0.743 | 1 | 0.924 | 0.947 | 0.814 | 1 | 1 | 0.496 | 0.221 | 1 | 0.395 | 0.876 | 0.96 | 0.824 | 0.118 | 0.978 | 0.723 | 0.945
CN(C)CCCOc1ccc(-c2ccc3ncc4c(c3c2)n(C2CCOCC2)c(=O)n4C)cn1 [AZD0156] + C[C@@H]1COCCN1C2=NC(=NC(=C2)C3(CC3)[S@](=N)(=O)C)C4=C5C=CNC5=NC=C4 [AZD6738] (first compound max 1 µM, 7x7, partner max 10 µM) | 0.9 | 0.591 | 0.99 | 0.613 | 0.844 | 0.706 | 0.848 | 0.988 | 0.388 | 0.824 | 0.809 | 0.354 | 0.435 | 0.46 | 0.948 | 0.655 | 0.475 | 0.23 | 0.882
CCN(CCO)CCCOc1ccc2c(Nc3cc(CC(=O)Nc4cccc(F)c4)[nH]n3)ncnc2c1 [AZD2811] + O=C(c1cc(Cc2n[nH]c(=O)c3ccccc23)ccc1F)N1CCN(C(=O)C2CC2)CC1 [Olaparib] (first compound max 1 µM, 7x7, partner max 10 µM) | 0.27 | 0.268 | 1 | 0.206 | 0.47 | 0.302 | 0.454 | 0.823 | 0.211 | 0.62 | 0.824 | 0.155 | 0.19 | 0.289 | 0.615 | 0.218 | 0.305 | 0.268 | 0.108
C=CCn1c(=O)c2cnc(Nc3ccc(N4CCN(C)CC4)cc3)nc2n1-c1cccc(C(C)(C)O)n1 [AZD1775] + C[C@@H]1COCCN1C2=NC(=NC(=C2)C3(CC3)[S@](=N)(=O)C)C4=C5C=CNC5=NC=C4 [AZD6738] (first compound max 1 µM, partner max 10 µM) | 0.922 | 0.755 | 1 | 0.756 | 0.826 | 0.848 | 0.944 | 1 | 0.659 | 0.912 | 0.883 | 0.67 | 0.525 | 0.521 | 0.979 | 0.67 | 0.682 | 0.72 | 0.934
COc1cc2c(cc1OCCCCCOc1cc3c(cc1OC)C(=O)N1C=C(C)C[C@H]1C=N3)N=C[C@@H]1CC(C)=CN1C2=O [SG3199] + O=C(c1cc(Cc2n[nH]c(=O)c3ccccc23)ccc1F)N1CCN(C(=O)C2CC2)CC1 [Olaparib] (first compound max 0.001 µM, 7x7, partner max 10 µM) | 0.0847 | 0.162 | 0.257 | 0.101 | 0.566 | 0.248 | 0.42 | 0.597 | 0.0449 | 0.059 | 0.103 | 0.0964 | 0.0995 | 0.0469 | 0.323 | 0.121 | 0.132 | 0.159 | 0.129
COc1cccc(OCCCN)c1-c1cc(Nc2cnc(C#N)cn2)n[nH]1 [Prexasertib] + CN(C)CCCOc1ccc(-c2ccc3ncc4c(c3c2)n(C2CCOCC2)c(=O)n4C)cn1 [AZD0156] (first compound max 1 µM, 7x7, partner max 1 µM) | 0.954 | 0.689 | 1 | 0.685 | 0.912 | 0.537 | 0.958 | 1 | 0.583 | 0.92 | 0.913 | 0.596 | 0.627 | 0.84 | 1 | 0.471 | 0.537 | 0.413 | 0.926
Cc1cc2ncnn2cc1Nc1ncc2c(n1)n(C1CCOCC1)c(=O)n2C [AZD7648] + O=C(c1cc(Cc2n[nH]c(=O)c3ccccc23)ccc1F)N1CCN(C(=O)C2CC2)CC1 [Olaparib] (first compound max 10 µM, 7x7, partner max 10 µM) | 0.406 | 0.134 | 0.454 | 0.242 | 0.572 | 0.204 | 0.357 | 0.693 | 0.0811 | 0.036 | 0.324 | 0.119 | 0.111 | 0.141 | 0.333 | 0.0682 | 0.145 | 0.253 | 0.374
Cc1cc2ncnn2cc1Nc1ncc2c(n1)n(C1CCOCC1)c(=O)n2C [AZD7648] + CCN(CCO)CCCOc1ccc2c(Nc3cc(CC(=O)Nc4cccc(F)c4)[nH]n3)ncnc2c1 [AZD2811] (first compound max 10 µM, 7x7, partner max 1 µM) | 0.61 | 0.387 | 1 | 0.342 | 0.279 | 0.529 | 0.445 | 0.727 | 0.147 | 0.717 | 0.826 | 0.234 | 0.472 | 0.342 | 0.595 | 0.235 | 0.298 | 0.258 | 0.354
COc1cccc(OCCCN)c1-c1cc(Nc2cnc(C#N)cn2)n[nH]1 [Prexasertib] + Cc1cc2ncnn2cc1Nc1ncc2c(n1)n(C1CCOCC1)c(=O)n2C [AZD7648] (first compound max 1 µM, 7x7, partner max 10 µM) | 0.929 | 0.704 | 1 | 0.736 | 0.93 | 0.48 | 0.965 | 1 | 0.569 | 0.825 | 0.927 | 0.516 | 0.67 | 0.839 | 1 | 0.571 | 0.56 | 0.314 | 0.983
C[C@@H]1COCCN1c1cc(C2([S@](C)(=N)=O)CC2)nc(-c2ccnc3[nH]ccc23)n1 [AZD6738] + O=C(c1cc(Cc2n[nH]c(=O)c3ccccc23)ccc1F)N1CCN(C(=O)C2CC2)CC1 [Olaparib] (first compound max 10 µM, 7x7, partner max 10 µM) | 0.836 | 0.646 | 1 | 0.638 | 0.817 | 0.604 | 0.867 | 0.993 | 0.391 | 0.43 | 0.839 | 0.436 | 0.441 | 0.331 | 0.921 | 0.456 | 0.584 | 0.373 | 0.909
CN(C)CCCOc1ccc(-c2ccc3ncc4c(c3c2)n(C2CCOCC2)c(=O)n4C)cn1 [AZD0156] + CCN(CCO)CCCOc1ccc2c(Nc3cc(CC(=O)Nc4cccc(F)c4)[nH]n3)ncnc2c1 [AZD2811] (first compound max 1 µM, 7x7, partner max 1 µM) | 0.456 | 0.111 | 0.983 | 0.159 | 0.159 | 0.238 | 0.303 | 0.684 | 0.0192 | 0.547 | 0.74 | 0.0784 | 0.145 | 0.244 | 0.45 | 0.0989 | 0.155 | 0.0797 | 0.162
Cc1cc2ncnn2cc1Nc1ncc2c(n1)n(C1CCOCC1)c(=O)n2C [AZD7648] + C=CCn1c(=O)c2cnc(Nc3ccc(N4CCN(C)CC4)cc3)nc2n1-c1cccc(C(C)(C)O)n1 [AZD1775] (first compound max 10 µM, partner max 1 µM) | 0.824 | 0.375 | 1 | 0.432 | 0.441 | 0.736 | 0.869 | 1 | 0.295 | 0.512 | 0.532 | 0.275 | 0.551 | 0.288 | 0.853 | 0.408 | 0.287 | 0.455 | 0.558
COc1cccc2c1C(=O)c1c(O)c3c(c(O)c1C2=O)C[C@@](O)(C(=O)CO)C[C@@H]3O[C@H]1C[C@H](N)[C@H](O)[C@H](C)O1 [Doxorubicin] + Cc1cc2ncnn2cc1Nc1ncc2c(n1)n(C1CCOCC1)c(=O)n2C [AZD7648] (first compound max 1 µM, 7x7, partner max 10 µM) | 0.537 | 0.665 | 1 | 0.751 | 0.945 | 0.986 | 0.875 | 1 | 0.295 | 0.546 | 0.979 | 0.148 | 0.807 | 0.657 | 0.949 | 0.182 | 0.802 | 0.871 | 0.823
COc1cccc(OCCCN)c1-c1cc(Nc2cnc(C#N)cn2)n[nH]1 [Prexasertib] + C[C@@H]1COCCN1C2=NC(=NC(=C2)C3(CC3)[S@](=N)(=O)C)C4=C5C=CNC5=NC=C4 [AZD6738] (first compound max 1 µM, 7x7, partner max 10 µM) | 0.922 | 0.712 | 1 | 0.744 | 0.879 | 0.663 | 0.956 | 1 | 0.554 | 0.872 | 0.898 | 0.481 | 0.696 | 0.808 | 0.995 | 0.503 | 0.615 | 0.363 | 0.975
